The values below come from US20210214385A1, “INHIBITORS OF D-AMINO ACID OXIDASE AND USES THEREOF” (SyneuRx International (Taiwan) Corp., priority 2018, published 2021).

Data set [1] concerns the target human D-amino acid oxidase (hDAAO) (Homo sapiens, UniProt P14920). Nature of the data set: In vitro measurement of human D-amino acid oxidase (hDAAO) activity, D-Serine substrate, Amplex Red fluorescence. The format is biochemical.
Data set [2] in a line: Log P, n-octanol/water partition coefficient, HPLC. It is filed as physicochemical. As to the method: The sample compounds tested in the log P experiments included enriched tannic acid (prepared by the enrichment method 10 of U.S. Ser. No. 10/105,378), compounds 21, 24, 27, 46, and 56. First, n-Octanol and water was saturated with each other to achieve partition equilibrium and the two phases were separated for further use. Sample compounds were dissolved in water and n-octanol phase, respectively. Both phases were mixed by vertical rotation movement. After the water and n-octal phases reached equilibrium state, both phases were analyzed to determine the concentrations of the sample compounds for the determination of log P values. All samples were performed in a Shimadzu CBM-20A FfPLC system. The chromatographic separation was carried out on a 5 μm, Kinetex C18 100 Å LC column (100×4.6 mm). The mobile phase was 0.1% formic acid in water and acetonitrile/Methanol set as gradient. Flow rate used was 1.2 mL/min. Column was at room temperature 20±5° C.
The partition coefficient abbreviated P is calculated based on the concentration in n-octanol divided by the concentration in water. The formula of log P is shown below: […]

Values joined by “and” are separate entries in the source; they are usually repeats but may differ in a detail not shown here. Equal entries are not always repeated.

Sequence of human D-amino acid oxidase (hDAAO) (P14920 whole entry): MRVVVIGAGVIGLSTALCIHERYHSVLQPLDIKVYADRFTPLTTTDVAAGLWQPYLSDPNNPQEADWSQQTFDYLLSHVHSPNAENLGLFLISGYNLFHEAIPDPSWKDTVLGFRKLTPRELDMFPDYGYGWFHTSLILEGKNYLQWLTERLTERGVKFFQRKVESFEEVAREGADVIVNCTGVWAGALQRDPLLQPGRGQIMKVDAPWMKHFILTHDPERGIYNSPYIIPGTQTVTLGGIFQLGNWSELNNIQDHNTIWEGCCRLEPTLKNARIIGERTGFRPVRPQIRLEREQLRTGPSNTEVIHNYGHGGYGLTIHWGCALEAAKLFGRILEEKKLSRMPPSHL

In general, IC50 refers to the concentration needed to halve the response being measured. Read a high IC50 as lower potency. In the case of `O=C(Oc1cc(OC(=O)c2cc(O)c(O)c(OC(=O)c3cc(O)c(O)c(OC(=O)c4cc(O)c(O)c(OC(=O)c5cc(O)c(O)c(OC(=O)c6cc(O)c(O)c(OC(=O)c7cc(O)c(O)c(OC(=O)c8cc(O)c(O)c(O)c8)c7)c6)c5)c4)c3)c2)cc(OC(=O)c2cc(O)c(O)c(OC(=O)c3cc(O)c(O)c(OC(=O)c4cc(O)c(O)c(OC(=O)c5cc(O)c(O)c(OC(=O)c6cc(O)c(O)c(OC(=O)c7cc(O)c(O)c(OC(=O)c8cc(O)c(O)c(O)c8)c7)c6)c5)c4)c3)c2)c1)c1cc(O)c(O)c(OC(=O)c2cc(O)c(O)c(OC(=O)c3cc(O)c(O)c(OC(=O)c4cc(O)c(O)c(OC(=O)c5cc(O)c(O)c(OC(=O)c6cc(O)c(O)c(OC(=O)c7cc(O)c(O)c(O)c7)c6)c5)c4)c3)c2)c1` [Compound 58, benzene-1,3,5-triyl tris(3-((3-((3-((3-((3-((3,4-dihydroxy-5-((3,4,5-trihydroxybenzoyl)oxy)benzoyl)oxy)-4,5-dihydroxybenzoyl)oxy)-4,5-dihydroxybenzoyl)oxy)-4,5-dihydroxybenzoyl)oxy)-4,5-dihydroxybenzoyl)oxy)-4,5-dihydroxybenzoate)], the IC50 in data set [1] was 2.71 nM and 3 nM.
As for `O=C(OC[C@H]1O[C@@H](OC(=O)c2cc(O)c(O)c(O)c2)[C@H](OC(=O)c2cc(O)c(O)c(O)c2)[C@@H](OC(=O)c2cc(O)c(O)c(O)c2)[C@@H]1OC(=O)c1cc(O)c(O)c(O)c1)c1cc(O)c(O)c(O)c1` [Compound 102], the IC50 in data set [1] was 54.2 nM and 53 nM.
As a reminder, the logP is the decadic logarithm of the partition coefficient of the neutral form, usually between octanol and water. A low value points to lower lipophilicity. In data set [2], `O=C(OC[C@H]1O[C@H](OC(=O)c2cc(O)c(O)c(OC(=O)c3cc(O)c(O)c(OC(=O)c4cc(O)c(O)c(OC(=O)c5cc(O)c(O)c(O)c5)c4)c3)c2)[C@H](OC(=O)c2cc(O)c(O)c(OC(=O)c3cc(O)c(O)c(OC(=O)c4cc(O)c(O)c(OC(=O)c5cc(O)c(O)c(O)c5)c4)c3)c2)[C@@H](OC(=O)c2cc(O)c(O)c(OC(=O)c3cc(O)c(O)c(OC(=O)c4cc(O)c(O)c(OC(=O)c5cc(O)c(O)c(O)c5)c4)c3)c2)[C@@H]1OC(=O)c1cc(O)c(O)c(OC(=O)c2cc(O)c(O)c(OC(=O)c3cc(O)c(O)c(OC(=O)c4cc(O)c(O)c(O)c4)c3)c2)c1)c1cc(O)c(O)c(OC(=O)c2cc(O)c(O)c(OC(=O)c3cc(O)c(O)c(OC(=O)c4cc(O)c(O)c(O)c4)c3)c2)c1` [Compound 27, (2R,3R,4S,5R,6R)-6-(((3-((3,4-dihydroxy-5-((3,4-dihydroxy-5-((3,4,5-trihydroxybenzoyl)oxy)benzoyl)oxy)benzoyl)oxy)-4,5-dihydroxybenzoyl)oxy)methyl)tetrahydro-2H-pyran-2,3,4,5-tetrayl tetrakis(3-((3,4-dihydroxy-5-((3,4-dihydroxy-5-((3,4,5-trihydroxybenzoyl)oxy)benzoyl)oxy)benzoyl)oxy)-4,5-dihydroxybenzoate)] returned a log partition coefficient (logP) of 0.6. In data set [1], the IC50 is 10.9 nM and 11 nM.
Turning to `O=C(Oc1ccccc1)c1cc(O)c(O)c(OC(=O)c2cc(O)c(O)c(OC(=O)c3cc(O)c(O)c(OC(=O)c4cc(O)c(O)c(OC(=O)c5cc(O)c(O)c(OC(=O)c6cc(O)c(O)c(OC(=O)c7cc(O)c(O)c(O)c7)c6)c5)c4)c3)c2)c1` [Compound 48, 5-((5-((5-((5-((5-((2,3-dihydroxy-5-(phenoxycarbonyl)phenoxy)carbonyl)-2,3-dihydroxyphenoxy)carbonyl)-2,3-dihydroxyphenoxy)carbonyl)-2,3-dihydroxyphenoxy)carbonyl)-2,3-dihydroxyphenoxy)carbonyl)-2,3-dihydroxyphenyl 3,4,5-trihydroxybenzoate], the IC50 in data set [1] is 17.3 nM and 17 nM.
`O=C(Oc1cc(OC(=O)c2cc(O)c(O)c(OC(=O)c3cc(O)c(O)c(OC(=O)c4cc(O)c(O)c(OC(=O)c5cc(O)c(O)c(OC(=O)c6cc(O)c(O)c(O)c6)c5)c4)c3)c2)cc(OC(=O)c2cc(O)c(O)c(OC(=O)c3cc(O)c(O)c(OC(=O)c4cc(O)c(O)c(OC(=O)c5cc(O)c(O)c(OC(=O)c6cc(O)c(O)c(O)c6)c5)c4)c3)c2)c1)c1cc(O)c(O)c(OC(=O)c2cc(O)c(O)c(OC(=O)c3cc(O)c(O)c(OC(=O)c4cc(O)c(O)c(OC(=O)c5cc(O)c(O)c(O)c5)c4)c3)c2)c1` [Compound 56, benzene-1,3,5-triyl tris(3-((3-((3-((3,4-dihydroxy-5-((3,4,5-trihydroxybenzoyl)oxy)benzoyl)oxy)-4,5-dihydroxybenzoyl)oxy)-4,5-dihydroxybenzoyl)oxy)-4,5-dihydroxybenzoate)] returned a logP in data set [2] of 1.92. Besides, the IC50 in data set [1] is 5.4 nM and 5 nM.
For `O=C(Oc1cccc(OC(=O)c2cc(O)c(O)c(OC(=O)c3cc(O)c(O)c(OC(=O)c4cc(O)c(O)c(OC(=O)c5cc(O)c(O)c(OC(=O)c6cc(O)c(O)c(O)c6)c5)c4)c3)c2)c1)c1cc(O)c(O)c(OC(=O)c2cc(O)c(O)c(OC(=O)c3cc(O)c(O)c(OC(=O)c4cc(O)c(O)c(OC(=O)c5cc(O)c(O)c(O)c5)c4)c3)c2)c1` [Compound 51, 1,3-phenylene bis(3-((3-((3-((3,4-dihydroxy-5-((3,4,5-trihydroxybenzoyl)oxy)benzoyl)oxy)-4,5-dihydroxybenzoyl)oxy)-4,5-dihydroxybenzoyl)oxy)-4,5-dihydroxybenzoate)], the IC50 in data set [1] was 8.58 nM and 9 nM.
On to `O=C(OC[C@H]1O[C@H](OC(=O)c2cc(O)c(O)c(OC(=O)c3cc(O)c(O)c(O)c3)c2)[C@H](OC(=O)c2cc(O)c(O)c(OC(=O)c3cc(O)c(O)c(O)c3)c2)[C@@H](OC(=O)c2cc(O)c(O)c(OC(=O)c3cc(O)c(O)c(O)c3)c2)[C@@H]1OC(=O)c1cc(O)c(O)c(OC(=O)c2cc(O)c(O)c(O)c2)c1)c1cc(O)c(O)c(OC(=O)c2cc(O)c(O)c(O)c2)c1` [Compound 21, (2R,3R,4S,5R,6R)-6-(((3,4-dihydroxy-5-((3,4,5-trihydroxybenzoyl)oxy)benzoyl)oxy)methyl)tetrahydro-2H-pyran-2,3,4,5-tetrayl tetrakis(3,4-dihydroxy-5-((3,4,5-trihydroxybenzoyl)oxy)benzoate)], for which the logP in data set [2] worked out at 1.32. For the same molecule, the IC50 in data set [1] was 19.4 nM and 20 nM.
Turning to `O=C(OC[C@H]1O[C@@H](OC(=O)c2cc(O)c(O)c(OC(=O)c3cc(O)c(O)c(OC(=O)c4cc(O)c(O)c(O)c4)c3)c2)[C@H](OC(=O)c2cc(O)c(O)c(OC(=O)c3cc(O)c(O)c(OC(=O)c4cc(O)c(O)c(O)c4)c3)c2)[C@@H](OC(=O)c2cc(O)c(O)c(OC(=O)c3cc(O)c(O)c(OC(=O)c4cc(O)c(O)c(O)c4)c3)c2)[C@@H]1OC(=O)c1cc(O)c(O)c(OC(=O)c2cc(O)c(O)c(OC(=O)c3cc(O)c(O)c(O)c3)c2)c1)c1cc(O)c(O)c(OC(=O)c2cc(O)c(O)c(OC(=O)c3cc(O)c(O)c(O)c3)c2)c1` [Compound 37, (2S,3R,4S,5R,6R)-6-(((3-((3,4-dihydroxy-5-((3,4,5-trihydroxybenzoyl)oxy)benzoyl)oxy)-4,5-dihydroxybenzoyl)oxy)methyl)tetrahydro-2H-pyran-2,3,4,5-tetrayl tetrakis(3-((3,4-dihydroxy-5-((3,4,5-trihydroxybenzoyl)oxy)benzoyl)oxy)-4,5-dihydroxybenzoate)], the half-maximal inhibitory concentration (IC50) in data set [1] was 11.8 nM and 12 nM.
With `O=C(Oc1cccc(OC(=O)c2cc(O)c(O)c(OC(=O)c3cc(O)c(O)c(OC(=O)c4cc(O)c(O)c(OC(=O)c5cc(O)c(O)c(OC(=O)c6cc(O)c(O)c(OC(=O)c7cc(O)c(O)c(OC(=O)c8cc(O)c(O)c(O)c8)c7)c6)c5)c4)c3)c2)c1)c1cc(O)c(O)c(OC(=O)c2cc(O)c(O)c(OC(=O)c3cc(O)c(O)c(OC(=O)c4cc(O)c(O)c(OC(=O)c5cc(O)c(O)c(OC(=O)c6cc(O)c(O)c(OC(=O)c7cc(O)c(O)c(O)c7)c6)c5)c4)c3)c2)c1` [Compound 53, 1,3-phenylene bis(3-((3-((3-((3-((3-((3,4-dihydroxy-5-((3,4,5-trihydroxybenzoyl)oxy)benzoyl)oxy)-4,5-dihydroxybenzoyl)oxy)-4,5-dihydroxybenzoyl)oxy)-4,5-dihydroxybenzoyl)oxy)-4,5-dihydroxybenzoyl)oxy)-4,5-dihydroxybenzoate)], the IC50 in data set [1] was 5.8 nM and 6 nM.
On the same count and under the same terms, next, `O=C(OCC1OC(OC(=O)c2cc(O)c(O)c(OC(=O)c3cc(O)c(O)c(O)c3)c2)C(OC(=O)c2cc(O)c(O)c(OC(=O)c3cc(O)c(O)c(O)c3)c2)C(OC(=O)c2cc(O)c(O)c(OC(=O)c3cc(O)c(O)c(O)c3)c2)C1OC(=O)c1cc(O)c(O)c(OC(=O)c2cc(O)c(O)c(O)c2)c1)c1cc(O)c(O)c(OC(=O)c2cc(O)c(O)c(O)c2)c1` (stereo not shown) [Compound 103]: 19.4 nM and 20 nM; `O=C(OC[C@H]1O[C@H](OC(=O)c2cc(O)c(O)c(O)c2)[C@H](OC(=O)c2cc(O)c(O)c(O)c2)[C@@H](OC(=O)c2cc(O)c(O)c(O)c2)[C@@H]1OC(=O)c1cc(O)c(O)c(O)c1)c1cc(O)c(O)c(O)c1` [Compound 101]: 53.2 nM and 51 nM.
Consider `O=C(Oc1ccccc1)c1cc(O)c(O)c(OC(=O)c2cc(O)c(O)c(OC(=O)c3cc(O)c(O)c(OC(=O)c4cc(O)c(O)c(OC(=O)c5cc(O)c(O)c(O)c5)c4)c3)c2)c1` [Compound 46, 5-((5-((5-((2,3-dihydroxy-5-(phenoxycarbonyl)phenoxy)carbonyl)-2,3-dihydroxyphenoxy)carbonyl)-2,3-dihydroxyphenoxy)carbonyl)-2,3-dihydroxyphenyl 3,4,5-trihydroxybenzoate], for which, in data set [2], the lipophilicity (logP) amounted to 2.02. Also, the IC50 in data set [1] was 24.6 nM and 24 nM.
